We go through 13 molecules from PubChem BioAssay (NCI).

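The compound was tested at five concentrations on cells cultured in 96-well plates, with a 48-hour exposure period. TGI marks complete inhibition of growth.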 *1 amine or outer side, *2 acyl side, *3 side chain or, on linkers, in order; H or OH if unused. Where a SMILES comes first, the peptide text is derived from it. Bridges are numbered along the chain shown (N, C = ends). [ ]: non-standard residue; d: D form. ξ: configuration not given here. X35 = CC[C@H](C)[C@@H](N[*:1])[C@@H](O)CC(=O)O[C@H](C(=O)[C@H](C)C(=O)[*:2])C(C)C; NMeY = CN[C@@H](Cc1ccc(O)cc1)C(=O)O; dNMeL = CN[C@H](CC(C)C)C(=O)O; ξΔPro = O=C(O)C1C=CCN1

Among the test systems are 786-0 renal; DU-145 prostate; HS 578T breast; HT29 colon; MCF7 breast; NCI-H23 lung; NCI-H460 lung; NCI/ADR-RES ovarian; PC-3 prostate; UACC-257 melanoma.
Holding throughout (assay): NCI tumour cell line growth inhibition, 48 h

On to `O=c1nc2ccc3sc4ccccc4c(=O)c3n2c(=O)[nH]1`, for which the TGI with 786-0 renal, in the experiment on DU-145 prostate, with HS 578T breast, in the experiment with HT29 colon, in the experiment on MCF7 breast and in the experiment with NCI-H23 lung was over 100 µM in each case. For the same molecule, the TGI with NCI-H460 lung, in the experiment on NCI/ADR-RES ovarian, in the experiment on PC-3 prostate and in the experiment with UACC-257 melanoma was over 100 µM in each case.
In the case of `CCOC(=O)Cc1csc(N=Nc2c(O)[nH]c3ccccc23)n1`, the TGI with 786-0 renal, with DU-145 prostate, with HS 578T breast, in the experiment on HT29 colon, in the experiment with MCF7 breast and in the experiment on NCI-H23 lung was over 100 µM throughout. In addition, the TGI in the experiment with NCI-H460 lung, with NCI/ADR-RES ovarian, with PC-3 prostate and with UACC-257 melanoma was over 100 µM each time.
As for `CC(=Nc1cc(Cl)cc(Cl)c1)c1ccncc1`, the TGI in the experiment on 786-0 renal, in the experiment on DU-145 prostate, in the experiment on HS 578T breast, with HT29 colon, with MCF7 breast and in the experiment with NCI-H23 lung was over 100 µM in each case. Also, the TGI in the experiment with NCI-H460 lung, in the experiment on NCI/ADR-RES ovarian, in the experiment with PC-3 prostate and with UACC-257 melanoma was over 100 µM each time.
Take `CC[C@H](C)[C@H]1NC(=O)[C@@H](NC(=O)[C@@H](CC(C)C)N(C)C(=O)C2C=CCN2)[C@@H](C)OC(=O)[C@H](Cc2ccc(OC)cc2)N(C)C(=O)[C@@H]2CCCN2C(=O)[C@H](CC(C)C)NC(=O)[C@@H](C)C(=O)[C@H](C(C)C)OC(=O)C[C@@H]1O` (stereo not given in full) (H-[ξΔPro][dNMeL]T[X35]LP[NMeY](Me); ester 3-C): the TGI with 786-0 renal is 0.0597 µM; in the experiment on DU-145 prostate it was 0.251 µM; in the experiment on HS 578T breast it was under 0.005 µM; in the experiment on HT29 colon, under 0.005 µM; with MCF7 breast, 0.423 µM; with NCI-H23 lung, 0.0198 µM. Besides, the TGI with NCI-H460 lung is 0.114 µM; in the experiment with NCI/ADR-RES ovarian, 0.52 µM; in the experiment with PC-3 prostate, 1.06 µM; in the experiment on UACC-257 melanoma it was 0.239 µM.
Consider `CC1CN=C(c2ccc(-c3nc(-c4ccc(C5=NCC(C)N5)cc4)nc(N(C)C)n3)cc2)N1` (stereo not given), for which the TGI in the experiment on 786-0 renal turned out to be 4.49 µM; with DU-145 prostate, 5.59 µM; in the experiment on HS 578T breast, 17.6 µM; with HT29 colon it was 7.33 µM; in the experiment on MCF7 breast, 4.71 µM; in the experiment on NCI-H23 lung, 9.94 µM. In addition, the TGI was 11.1 µM in the experiment on NCI-H460 lung, 56.4 µM with NCI/ADR-RES ovarian, 4.42 µM in the experiment on PC-3 prostate and 8.76 µM in the experiment on UACC-257 melanoma.
In the case of `C=CCc1ccccc1C1CC2(C(=O)OC)OC1C(C(=O)OC)=C2C(=O)OC` (stereo not given), the TGI in the experiment on 786-0 renal, in the experiment on DU-145 prostate, with HS 578T breast, in the experiment with HT29 colon, in the experiment on MCF7 breast and in the experiment on NCI-H23 lung was over 10 µM in each case. The TGI in the experiment on NCI-H460 lung, in the experiment on NCI/ADR-RES ovarian, with PC-3 prostate and with UACC-257 melanoma was over 10 µM in each case.
For `O=C1C(Cl)=C(c2ccc([N+](=O)[O-])cc2)C(=O)c2c(O)cccc21`, the TGI came out at 8.82 µM in the experiment on 786-0 renal; 19.4 µM with DU-145 prostate; 4.13 µM in the experiment with HS 578T breast; 7.37 µM in the experiment on HT29 colon; 14.2 µM in the experiment on MCF7 breast; 4.14 µM in the experiment on NCI-H23 lung. Moreover, the TGI stood at 6.99 µM in the experiment with NCI-H460 lung, 17.1 µM with NCI/ADR-RES ovarian, 7.28 µM in the experiment on PC-3 prostate and 4.84 µM with UACC-257 melanoma.
On to `NC(=S)N/N=C1\CCCC1C(O)(C(F)(F)Cl)C(F)(F)Cl` (stereo not given), for which the TGI in the experiment with 786-0 renal, with DU-145 prostate, with HS 578T breast, in the experiment on HT29 colon, in the experiment with MCF7 breast and in the experiment with NCI-H23 lung was over 10 µM each time. For the same molecule, the TGI in the experiment with NCI-H460 lung, with NCI/ADR-RES ovarian, in the experiment on PC-3 prostate and in the experiment on UACC-257 melanoma was over 10 µM throughout.
As to `Cc1ccc(NC2=N/C(=C/c3ccco3)C(Cl)=N2)cc1`, the TGI with 786-0 renal, in the experiment on DU-145 prostate, in the experiment on HS 578T breast, in the experiment on HT29 colon, in the experiment on MCF7 breast and with NCI-H23 lung was over 100 µM each time. The TGI in the experiment with NCI-H460 lung, in the experiment with NCI/ADR-RES ovarian, in the experiment with PC-3 prostate and with UACC-257 melanoma was over 100 µM in each case.
Regarding `Cn1ccc2c(c1=O)C(=O)OC2(C)C`, the TGI in the experiment on 786-0 renal, with DU-145 prostate, in the experiment with HS 578T breast, in the experiment with HT29 colon, with MCF7 breast and in the experiment with NCI-H23 lung was over 100 µM throughout. Moreover, the TGI with NCI-H460 lung, in the experiment on NCI/ADR-RES ovarian, with PC-3 prostate and in the experiment on UACC-257 melanoma was over 100 µM in each case.
Consider `C=C(CCOC)CCC1CCCCC(=C)[C@H]1O` (stereo not given in full), for which the TGI in the experiment with 786-0 renal, with DU-145 prostate, with HS 578T breast, in the experiment with HT29 colon, with MCF7 breast and in the experiment on NCI-H23 lung was over 100 µM in each case. Also, the TGI with NCI-H460 lung, with NCI/ADR-RES ovarian, in the experiment on PC-3 prostate and with UACC-257 melanoma was over 100 µM each time.
For `C=CCOC1(CC=C)C(=O)OC2C(O)COC21O` (stereo not given), the TGI in the experiment on 786-0 renal, in the experiment with DU-145 prostate, with HS 578T breast, in the experiment on HT29 colon, with MCF7 breast and in the experiment with NCI-H23 lung was over 100 µM in each case. Also, the TGI in the experiment on NCI-H460 lung, in the experiment with NCI/ADR-RES ovarian, in the experiment with PC-3 prostate and with UACC-257 melanoma was over 100 µM each time.
`N#Cc1c(N2CCN(c3ccc([N+](=O)[O-])cc3)CC2)[n+](=O)c2ccc(-c3ccc([N+](=O)[O-])cc3)cc2n1[O-]`: the TGI with 786-0 renal, in the experiment with DU-145 prostate, in the experiment on HS 578T breast, with HT29 colon, in the experiment with MCF7 breast and in the experiment on NCI-H23 lung was over 100 µM throughout. Further, the TGI was over 38.3 µM in the experiment on NCI-H460 lung, over 100 µM in the experiment on NCI/ADR-RES ovarian, over 100 µM with PC-3 prostate and over 100 µM in the experiment on UACC-257 melanoma.
